Where a name gives a salt, the structure may show the parent alone.

In the experiment the test system is Lysozyme (dimer formation with fructose). The experiment can be described thus: Inhibitory activity on Maillard reaction: formation of lysozyme dimer (lysozyme + fructose, SDS-PAGE, densitometer). It is filed as biochemical. The conditions noted are these: lysozyme 10 mg/ml, fructose 100 mM, 0.2M sodium phosphate buffer pH 7.4, 37° C., 3 days. As to the method: The inhibitory activity on Maillard reaction of the compounds of the present invention has confirmed by the screening system mentioned below. Lysozyme (10 mg/ml) and fructose (100 mM) were dissolved in 0.2M sodium phosphatic buffer solution (PH 7.4). The solution was incubated at a temperature of 37° C. for 3 days. A given volume of the reaction solution was separated using SDS-PAGE by the electrophoresis. After the electrophoresis, the SDS-PAGE was dyed by 0.2% Coomassie Brilliant Blue R-250 and then the dimer was determined by densitometer. The compounds of the present invention were added before incubation and the inhibitory activity of them against the formation of the dimer was examined in various concentrations and IC50 values were calculated.
For orientation: IC50 means the concentration at which inhibition is half-maximal. `Cc1c(C)c2c(c(C)c1O)CCC(C)(CCOc1ccc(NC(=O)c3ccc(NC(=N)N)cc3)cc1C(F)(F)F)O2` (stereo not shown) [7 (k), N-[4-[2-(6-hydroxy-2,5,7,8-tetramethyl-3,4-dihydro-2H-benzo[1,2-b]pyran-2-yl)-ethoxy]-3-trifluoromethyl-phenyl]-4-guanidinobenzamidehydrochloride]: the IC50 came to 12 µM.
For `Cc1c(C)c2c(c(C)c1O)CCC(C)(CCOc1ccc(NC(=O)COc3ccc(NC(=N)N)cc3)cc1)O2` (stereo not shown) [7 (l), N-[4-[2-(6-hydroxy-2,5,7,8-tetramethyl-3,4-dihydro-2H-benzo[1,2-b]pyran-2-yl)-ethoxy]phenyl]-4-guanidinophenoxyacetamidehydrochloride], the IC50 is 54 µM.
For the compound `Cc1c(C)c2c(c(C)c1O)CCC(C)(CCOc1ccc(NC(=O)c3cccc(NC(=N)N)c3)cc1C(F)(F)F)O2` (stereo not shown) [7 (m), N-[4-[2-(6-hydroxy-2,5,7,8-tetramethyl-3,4-dihydro-2H-benzo[1,2-b]pyran-2-yl)-ethoxy]-3-trifluoromethyl-phenyl]-3-guanidinobenzamidehydrochloride], the IC50 turned out to be 12 µM.
As for `Cc1c2c(c3ccccc3c1O)OC(C)(CCOc1ccc(NC(=O)/C=C/c3ccc(NC(=N)N)cc3)cc1)CC2` (stereo not shown) [7 (n), N-[4-[2-(2,5-dimethyl-6-hydroxy-3,4-dihydro-2H-naphtho[1,2-b]pyran-2-yl)-ethoxy]phenyl]-4-guanidino-cinnamamide hydrochloride], the figure is 10 µM.
To `Cc1c(C)c2c(c(C)c1O)CCC(C)(CCSc1ccc(NC(=O)CSc3ccc(NC(=N)N)cc3)cc1)O2` (stereo not shown) [7 (t), N-[4-[2-(6-hydroxy-2,5,7,8-tetramethyl-3,4-dihydro-2H-benzo[1,2-b]pyran-2-yl)-ethylthio]phenyl]-4-guanidinophenylthioacetamidehydrochloride] belongs 17 µM; to `Cc1c(C)c2c(c(C)c1O)CCC(C)(CCCCOc1ccc(NC(=O)c3ccc(NC(=N)N)cc3)cc1)O2` (stereo not shown) [9 (a), N-[4-[4-(6-hydroxy-2,5,7,8-tetramethyl-3,4-dihydro-2H-benzo[1,2-b]pyran-2-yl)-butoxy]phenyl]-4-guanidinobenzamidehydrochloride], 10 µM; to `Cc1c(C)c2c(c(C)c1O)CCC(C)(CCCCSc1ccc(NC(=O)/C=C/c3ccc(NC(=N)N)cc3)cc1)O2` (stereo not shown) [9 (d), N-[4-[4-(6-hydroxy-2,5,7,8-tetramethyl-3,4-dihydro-2H-benzo[1,2-b]pyran-2-yl)-butylthio]phenyl]-4-guanidinocinnamamidehydrochloride], 5.4 µM.
For the compound `Cc1c2c(c3ccccc3c1O)OC(C)(CCCCSc1ccc(NC(=O)c3ccc(NC(=N)N)cc3)cc1)CC2` (stereo not shown) [9 (j), N-[4-[4-(2,5-dimethyl-6-hydroxy-3,4-dihydro-2H-naphtho[1,2-b]pyran-2-yl)-butylthio]phenyl]-4-guanidinobenzamidehydrochloride], the IC50 was 4.8 µM.
As for `Cc1c(C)c2c(c(C)c1O)CCC(C)(CCCCOc1ccc(NC(=O)/C=C/c3ccc(NC(=N)N)cc3)cc1C(F)(F)F)O2` (stereo not shown) [9 (l), N-[4-[4-(6-hydroxy-2,5,7,8-tetramethyl-3,4-dihydro-2H-benzo[1,2-b]pyran-2-yl)-butoxy]-3-trifluoromethyl-phenyl]-4-guanidino-cinnamamide hydrochloride], the figure is 6.6 µM; as for `CCOC(=O)c1cc(NC(=N)N)cc(C(=O)Nc2ccc(OCCCCC3(C)CCc4c(C)c(O)c(C)c(C)c4O3)cc2)c1` (stereo not shown) [9 (m), N-[4-[4-(6-hydroxy-2,5,7,8-tetramethyl-3,4-dihydro-2H-benzo[1,2-b]pyran-2-yl)-butoxy]phenyl]-3-guanidino-5-ethoxycarbonylbenzamidehydrochloride], 9 µM.
Regarding `Cc1c(C)c2c(c(C)c1O)CCC(C)(CCCCOc1ccc(NC(=N)N)cc1C(F)(F)F)O2` (stereo not shown) [10 (a), 2-trifluoromethyl-4-guanidinophenyl 4-(6-hydroxy-2,5,7,8-tetramethyl-3,4-dihydro-2H-benzo[1,2-b]-pyran-2-yl)butyl ether hydrochloride], the IC50 came out at 21 µM.
To `Cc1c(C)c2c(c(C)c1O)CCC(C)(CCCCSc1ccc(NC(=N)N)cc1)O2` (stereo not shown) [10 (e), 4-guanidinophenyl 4-(6-hydroxy-2,5,7,8-tetramethyl-3,4-dihydro-2H-benzo[1,2-b]pyran-2-yl)butyl thioether hydrochloride] belongs 36 µM.
As for `Cc1c(C)c2c(c(C)c1O)CCC(C)(CCCCNC(=O)COc1ccc(NC(=N)N)cc1)O2` (stereo not shown) [22 (a), N-[4-(6-hydroxy-2,5,7,8-tetramethyl-3,4-dihydro-2H-benzo[1,2,-b]pyran-2-yl)butyl]-2-(4-guanidinophenoxy)acetamide hydrochloride], the figure is 500 µM; as for `Cc1c(C)c2c(c(C)c1O)CCC(C)(CCN(Cc1ccccc1)C(=O)/C=C/c1ccc(NC(=N)N)cc1)O2` (stereo not shown) [24 (a), N-benzyl-N-[2-(6-hydroxy-2,5,7,8-tetramethyl-3,4-dihydro-2H-benzo[1,2-b]pyran-2-yl)ethyl]-4-guanidinocinnamamide hydrochloride], 68 µM.
On to `Cc1c(C)c2c(c(C)c1O)CCC(C)(CCSCCOc1ccc(NC(=N)N)cc1)O2` (stereo not shown) [27 (b), 4-guanidinophenyl 2-[2-(6-hydroxy-2,5,7,8-tetramethyl-3,4-dihydro-2H-benzo[1,2-b]-pyran-2-yl)ethylthio]ethyl ether hydrochloride], for which the IC50 turned out to be 190 µM.
As for `Cc1c(C)c2c(c(C)c1O)CCC(C)(CCOc1ccc(CCCOc3ccc(NC(=N)N)cc3)cc1)O2` (stereo not shown) [27 (f), 4-guanidinophenyl 3-[4-[2-(6-hydroxy-2,5,7,8-tetramethyl-3,4-dihydro-2H-benzo[1,2-b]-pyran-2-yl)ethoxy]phenyl]-propyl ether hydrochloride], the figure is 5.6 µM; as for `Cc1c(C)c2c(c(C)c1O)CCC(C)(CCCCOc1ccc(CCSc3ccc(NC(=N)N)cc3)cc1)O2` (stereo not shown) [28 (c), 4-guanidinophenyl 2-[4-[4-(6-hydroxy-2,5,7,8-tetramethyl-3,4-dihydro-2H-benzo[1,2-b]-pyran-2-yl)butoxy]phenyl]-ethyl thioether hydrochloride], 4.2 µM.
To `Cc1c(C)c2c(c(C)c1O)CCC(C)(CCCCCCOc1ccc(NC(=N)N)cc1)O2` (stereo not shown) [29 (a), 4-guanidinophenyl 6-(6-hydroxy-2,5,7,8-tetramethyl-3,4-dihydro-2H-benzo[1,2-b]pyran-2-yl)-n-hexyl ether hydrochloride] belongs 20 µM.
To `Cc1c(C)c2c(c(C)c1O)CCC(C)(CCOCc1ccc(CNC(=N)NN)cc1)O2` (stereo not shown) [Example 4, 4-(3-aminoguamidinomethyl)benzyl 2-(6-hydroxy-2,5,7,8-tetramethyl-3,4-dihydro-2H-benzo[1,2-b]pyran-2-yl)ethyl ether hydroiodide] belongs 150 µM; to `Cc1c(C)c2c(c(C)c1O)CCC(C)(CCOc1ccc(NC(=N)N)cc1)O2` (stereo not shown) [Example 5, 4-guanidinophenyl 2-(6-hydroxy-2,5,7,8-tetramethyl-3,4-dihydro-2H-benzo[1,2-b]pyran-2-yl)ethyl ether hydrochloride], 320 µM.
Take `Cc1c(C)c2c(c(C)c1O)CCC(C)(CCCCNC(=N)NN)O2` (stereo not shown) [Example 8, 1-amino-3-[4-(6-hydroxy-2,5,7,8-tetramethyl-3,4-dihydro-2H-benzo[1,2-b]pyran-2-yl)butyl]guanidine hydroiodide]: the IC50 was determined as 300 µM.
To `Cc1c(C)c2c(c(C)c1O)CCC(C)(CCCCOc1ccc(NC(=O)/C=C/c3ccc(NC(=N)N)cc3)cc1)O2` (stereo not shown) [Example 9, N-[4-[4-(6-hydroxy-2,5,7,8-tetramethyl-3,4-dihydro-2H-benzo[1,2-b]pyran-2-yl)butoxy]phenyl]-4-guanidinocinnamamide hydrochloride] belongs 6.2 µM.
`Cc1c(C)c2c(c(C)c1O)CCC(C)(CCCCOc1ccc(NC(=N)N)cc1)O2` (stereo not shown) [Example 10, 4-guanidinophenyl 4-(6-hydroxy-2,5,7,8-tetramethyl-3,4-dihydro-2H-benzo[1,2-b]pyran-2-yl)butyl ether hydrochloride]: the IC50 worked out at 75 µM.
On to `Cc1c(C)c2c(c(C)c1O)CCC(C)(CCCCNC(=O)Nc1cccc(NC(=N)N)c1)O2` (stereo not shown) [Example 12, 1-[4-(6-hydroxy-2,5,7,8-tetramethyl-3,4-dihydro-2H-benzo[1,2-b]pyran-2-yl)butyl]-3-(3-guanidinophenyl)urea hydrochloride], for which the IC50 is 200 µM.
In the case of `CCOC(=O)c1cc(NC(=N)N)cc(C(=O)NCCC2(C)CCc3c(C)c(O)c(C)c(C)c3O2)c1` (stereo not shown) [Example 14, N-[2-(6-hydroxy-2,5,7,8-tetramethyl-3,4-dihydro-2H-benzo[1,2-b]pyran-2-yl)ethyl]-3-ethoxycarbonyl-5-guanidinobenzamide hydrochloride], the IC50 stood at 220 µM.
To `CCOC(=O)c1cc(NC(=N)N)ccc1OCCC1(C)CCc2c(C)c(O)c(C)c(C)c2O1` (stereo not shown) [Example 15, 2-ethoxycarbonyl-4-guanidinophenyl 2-(6-hydroxy-2,5,7,8-tetramethyl-3,4-dihydro-2H-benzo[1,2-b]pyran-2-yl)ethyl ether hydrochloride] belongs 220 µM; to `CCOC(=O)c1cc(NC(=N)N)cc(C(=O)Nc2ccc(OCCC3(C)CCc4c(C)c(O)c(C)c(C)c4O3)cc2)c1` (stereo not shown) [Example 17, N-[4-[2-(6-hydroxy-2,5,7,8-tetramethyl-3,4-dihydro-2H-benzo[1,2-b]pyran-2-yl)ethoxy]phenyl]-3-ethoxycarbonyl-5-guanidinobenzamide hydrochloride], 13 µM; to `Cc1c(C)c2c(c(C)c1O)CCC(C)(CCOc1ccc(CCCNC(=N)NN)cc1)O2` (stereo not shown) [Example 19, 4-[3-(3-aminoguanidino)propyl]phenyl 2-(6-hydroxy-2,5,7,8-tetramethyl-3,4-dihydro-2H-benzo[1,2-b]pyran-2-yl)ethyl ether hydroiodide], 56 µM.
